Series [1] deals with Pythium debaryanum. The series can be described thus: Action on Pythium debaryanum on sugar beets, (b) after seed dressing application. It counts as in vivo. The note with it: sugar beet, seed dressing 0.06%, 2-3 weeks at c. 20° C. The protocol:
(§1) Action on Pythium debaryanum on sugar beets
(b) Action after seed dressing application
The fungus is cultivated on carrot chip nutrient solution and added to a mixture of earth and sand. Flower pots are filled with the infected soil and sugar beet seeds which have been treated with the test preparations formulated as seed dressing powders are sown therein (0.06% of one of the compounds of Tables 1 and 2). The pots are then stood in a greenhouse for 2-3 weeks at c. 20° C. The soil is kept uniformly moist by gently spraying it with water. The emergence of the sugar beet plants is ascertained in evaluating the test.

A short description of series [2]: Volatility: evaporation half-life T50 in an evaporating tube. Conditions: 50° C., stream of air of 20 m/h, relative to T50 of Metalaxyl. In kind it is physicochemical. How it is done: (§2) Determination of physico-chemical data
In an evaporating tube, the evaporation half-life values T50 of representative fungicides of this invention are determined at 50° C. and in a stream of air of 20 m/h. The values are shown below, relative to the corresponding half-life T50 of Metalaxyl.

Series [3] relates to Venturia inaequalis. The series can be described thus: Residual-protective action against Venturia inaequalis on apple shoots. It counts as in vivo. Conditions: spray 0.06%, evaluated 15 days after infection. The protocol: Residual-protective action against Venturia inaequalis on apple shoots
Apple cuttings with 10-20 cm long fresh shoots are sprayed with a spray mixture prepared from a wettable powder formulation of the active ingredient (0.06%). After 24 hours the treated plants are infected with a conidia suspension of the fungus. The plants are then incubated for 5 days at 90-100% relative humidity and stood in a greenhouse for a further 10 days at 20°-24° C. Scab infestation is evaluated 15 days after infection.

A short description of series [4]: Water solubility. Conditions: 25° C. In kind it is physicochemical.
From the text: as §2
(a) Reduced water solubility

For series [5], the system named is Phytophthora infestans. It counts as in vivo, Phytophthora infestans (on tomato plants). The note with it: tomato, spray 0.06% active ingredient, infested after 24 hours, evaluated after 5 days at 20° C.
The subject of series [6] is Phytophthora infestans. In kind it is in vivo, Phytophthora infestans (on tomato plants). The note with it: tomato, sprayed 0.06% active ingredient 22 hours after infestation, evaluated 5 days after infestation.
The subject of series [7] is Pythium debaryanum. The series can be described thus: Action on Pythium debaryanum on sugar beets, (a) after soil application. It counts as in vivo. Conditions: sugar beet, 20 ppm of active ingredient based on volume of soil, 2-3 weeks at 20°-24° C.
From the text: as §1
(a) Action after soil application
The fungus is cultivated on carrot chips nutrient solution and added to a mixture of earth and sand. Flower pots are filled with the infected soil, in which sugar beet seeds are then sown. Immediately after sowing, the test preparations formulated as wettable powders are poured in the form of aqueous suspensions over the soil (20 ppm of active ingredient, based on the volume of the soil). The pots are then stood for 2-3 weeks in a greenhouse at 20°-24° C. The soil is kept uniformly moist by gently spraying it with water. The emergence of the sugar beet plants as well as the number of healthy and sick plants are ascertained in evaluating the test.

For series [8], the system named is Podosphaera leucotricha. The series can be described thus: Residual-protective action against Podosphaera leucotricha on apples. It counts as in vivo. The note with it: apple seedlings, spray 0.06% of active ingredient, evaluated 12 days after infection. The protocol: Residual-protective action against Podosphaera leucotricha on apples
Apple seedlings in the 5-leaf stage are sprayed with a spray mixture (0.06% of active ingredient) prepared from a wettable powder formulation of the active ingredient. After 24 hours the treated plants are infected with a conidia suspension of the fungus and placed in a climatic chamber at 70% relative humidity and 20° C. Evaluation of fungus infestation is made 12 days after infection.

Series [9] deals with Erysiphe graminis. The series can be described thus: Action against Erysiphe graminis on barley, residual protective action. Conditions: 0.02% active ingredient sprayed, infected after 3-4 hours, evaluated after 10 days. It counts as in vivo, Erysiphe graminis (on barley plants). How it is done:
Action against Erysiphe graminis on barley
Residual protective action
Barley plants about 8 cm in height are sprayed with a spray mixture (0.02% of active ingredient) prepared from the active ingredient formulated as a wettable powder. The treated plants are dusted with conidia of the fungus after 3-4 hours. The infected barley plants are then stood in a greenhouse at about 22° C. The extent of the fungus infection is evaluated after 10 days.

≈ marks a conversion by molar mass, not a printed value.

On to `CCOCC(=O)N(c1c(C)ccc([N+](=O)[O-])c1C)C(C)C(=O)OC` (centres unmarked) [Compound 31, N-(1'-methoxycarbonylethyl)-N-ethoxyacetyl-2,6-dimethyl-3-nitroaniline], for which, in [1], the “emergent plants (fully effective against Pythium pathogens), seed dressing application” value (“emergent plants … seed dressing application” below) is recorded as “over 90%”. In addition, in series [2], the “Multiple of Metalaxyl T50 (evaporation half-life)” value (“Multiple of Metalaxyl T50” for short) is listed as 41.8 ×. In addition, the “scab infestation (reduced to)” value in series [3] was 10-15%. For the same molecule, the solubility in [4] stood at 2500 µg/mL (≈ 7.39 mM). Further, the “fungus attack compared with untreated control plants (100% attack), residual-protective” value in series [5] was “less than 10%”. The “fungus attack compared with untreated and infected control plants (100% attack), residual curative” value (“fungus attack … (100% attack), residual curative” below) in [6] is listed as “less than 10%”. In addition, the “emergent plants (fully effective against Pythium pathogens), soil application” value (from here on “emergent plants … soil application”) in [7] was “over 90%”. In addition, the “fungus attack compared with untreated and infected control seedlings (100% attack)” value in series [8] was “less than 10%”.
For `COCC(=O)N(c1c(N)ccc(C)c1C)C(C)C(=O)OC` (centres unmarked) [Compound 8, N-(1'methoxycarbonylethyyl)-N-methoxyacetyl-2,3-dimethyl-6-aminoaniline], the “emergent plants … seed dressing application” value in series [1] is reported as “over 90%”. Also, in [3], the “scab infestation (reduced to)” value was 10-15%. Moreover, the “fungus attack compared with untreated control plants (100% attack), residual-protective” value in series [5] was “less than 10%”. Further, the “fungus attack … (100% attack), residual curative” value in [6] was “less than 10%”. In addition, the “emergent plants … soil application” value in series [7] is recorded as “over 90%”. Also, in series [8], the “fungus attack compared with untreated and infected control seedlings (100% attack)” value is given as “less than 10%”.
Take `COCC(=O)N(c1c(C)cccc1[N+](=O)[O-])C(C)C(=O)OC` (centres unmarked) [Compound 48, N-(1'-methoxycarbonylethyl)-N-methoxyacetyl-2-methyl-6-nitroaniline]: in series [1], the “emergent plants … seed dressing application” value was “over 90%”. Also, the “Multiple of Metalaxyl T50” value in [2] is given as 12.3 ×. The solubility in series [4] turned out to be 4000 µg/mL (≈ 12.9 mM). Besides, in series [5], the “fungus attack compared with untreated control plants (100% attack), residual-protective” value is on record as “less than 10%”. For the same molecule, in [6], the “fungus attack … (100% attack), residual curative” value is reported as “less than 10%”. For the same molecule, in series [7], the “emergent plants … soil application” value is listed as “over 90%”. The “fungus attack compared with untreated and infected control seedlings (100% attack)” value in series [8] is recorded as “less than 10%”.
In the case of `COCC(=O)N(c1c(N)ccc2ccccc12)C(C)C(=O)OC` (centres unmarked) [Compound 701, 1N-(1'-methoxycarbonylethyl)-1N-methoxyacetyl-1,2-diaminonaphthalene], the “emergent plants … seed dressing application” value in series [1] is “over 90%”. Further, the “scab infestation (reduced to)” value in series [3] is 10-15%. Moreover, the “fungus attack compared with untreated control plants (100% attack), residual-protective” value in [5] is “less than 10%”. Also, in series [6], the “fungus attack … (100% attack), residual curative” value was “less than 10%”. Also, in series [7], the “emergent plants … soil application” value was “over 90%”.
With `COCC(=O)N(c1c(C)ccc(N)c1C)C(C)C(=O)OC` (centres unmarked) [Compound 10, N-(1'methoxycarbonylethyl)-N-methoxyacetyl-2,6-dimethyl-3-aminoaniline], in series [1], the “emergent plants … seed dressing application” value was “over 90%”. Also, in series [3], the “scab infestation (reduced to)” value is given as 10-15%. Besides, the “fungus attack compared with control plants (100% attack)” value in [9] is “less than 10%”. Further, in [5], the “fungus attack compared with untreated control plants (100% attack), residual-protective” value is on record as “less than 10%”. The “fungus attack … (100% attack), residual curative” value in series [6] was “less than 10%”. The “emergent plants … soil application” value in [7] is reported as “over 90%”. Also, in series [8], the “fungus attack compared with untreated and infected control seedlings (100% attack)” value is reported as “less than 10%”.
For the molecule `COCC(=O)N(c1c(C)cccc1N)C(C)C(=O)OC` (centres unmarked) [Compound 2, N-(1'-methoxycarbonylethyl)-N-methoxyacetyl-2-amino-6-methyl-aniline], in series [1], the “emergent plants … seed dressing application” value is “over 90%”. Also, the “Multiple of Metalaxyl T50” value in [2] worked out at 5.4 ×. The molecule also registered a solubility in series [4] of 300 µg/mL (≈ 1.07 mM). Also, the “fungus attack compared with untreated control plants (100% attack), residual-protective” value in [5] is reported as “less than 10%”. Also, the “fungus attack … (100% attack), residual curative” value in series [6] is recorded as “less than 10%”. In addition, the “emergent plants … soil application” value in [7] was “over 90%”. In series [8], the “fungus attack compared with untreated and infected control seedlings (100% attack)” value is reported as “less than 10%”.
For `COCC(=O)N(c1c(C)ccc([N+](=O)[O-])c1C)C(C)C(=O)OC(C)C` (centres unmarked) [Compound 33, N-(1'-isopropyloxycarbonylethyl)-N-methoxyacetyl-2,6-dimethyl-3-nitroaniline], the “emergent plants … seed dressing application” value in series [1] was “over 90%”. Moreover, the “Multiple of Metalaxyl T50” value in series [2] is reported as 45.6 ×. Also, in series [4], the solubility was 500 µg/mL (≈ 1.42 mM). The “fungus attack compared with untreated control plants (100% attack), residual-protective” value in series [5] was “less than 10%”. The “fungus attack … (100% attack), residual curative” value in series [6] is given as “less than 10%”. In addition, in series [7], the “emergent plants … soil application” value was “over 90%”. The “fungus attack compared with untreated and infected control seedlings (100% attack)” value in series [8] is “less than 10%”.
Regarding `CCOCC(=O)N(c1c(Cl)ccc([N+](=O)[O-])c1C)C(C)C(=O)OC` (centres unmarked) [Compound 107], the “emergent plants … seed dressing application” value in series [1] is on record as “over 90%”. Besides, the “fungus attack compared with control plants (100% attack)” value in series [9] was “less than 10%”. Further, the “fungus attack … (100% attack), residual curative” value in series [6] is “less than 10%”. Further, the “emergent plants … soil application” value in [7] is listed as “over 90%”.
Take `COCC(=O)N(c1c(C)ccc([N+](=O)[O-])c1C)C(C)C(=O)OC` (centres unmarked) [Compound 28, N-(1'-methoxycarbonylethyl)-N-methoxyacetyl-2,6-dimethyl-3-nitroaniline]: the “emergent plants … seed dressing application” value in series [1] is “over 90%”. The “Multiple of Metalaxyl T50” value in [2] is 35.8 ×. For the same molecule, the “scab infestation (reduced to)” value in [3] was 10-15%. The molecule further registered a solubility in series [4] of 2500 µg/mL (≈ 7.71 mM). Also, the “fungus attack compared with untreated control plants (100% attack), residual-protective” value in series [5] is “less than 10%”. Also, the “fungus attack … (100% attack), residual curative” value in [6] is “less than 10%”. Further, the “emergent plants … soil application” value in series [7] is “over 90%”. Besides, in series [8], the “fungus attack compared with untreated and infected control seedlings (100% attack)” value is “less than 10%”.

Source of the values: patent publication US4377587A, “Arylamine derivatives and use thereof as microbicides” (Ciba-Geigy Corporation, priority 1980, dated 1983).
